According to patent publication US20200102349A1, “PEPTIDE REAGENTS AND METHODS FOR DETECTION AND TARGETING OF DYSPLASIA, EARLY CANCER AND CANCER” (THE REGENTS OF THE UNIVERSITY OF MICHIGAN, priority 2014, published 2020):

Legend:
HT29 cells = assay: Apparent association time constant on flow cytometry; format: binding, human
Protocol: We measured the apparent association time constant of the peptide to HT29 cells as an assessment of binding onset. HT29 cells were grown to […] confluence in 10 cm dishes, and detached with PBS-based cell dissociation buffer (Invitrogen). Cells (˜10^5) were incubated with 5 μM QRH*-Cy5.5 at 4° C. for various time intervals ranging from 0 to 20 min. The cells were centrifuged, washed with cold PBS, and fixed with 4% PFA. Flow cytometry analysis was performed as described above, and the median fluorescence intensity (y) was ratioed with that of HT29 cells without addition of peptide at different time points (t) using Flowjo software. The rate constant k was calculated by fitting the data to a first order kinetics model, y(t)=Imax[1−exp^(−kt)], where Imax=maximum value,^60 using Prism 5.0 software (GraphPad Inc).

[1] = system: HT29, SW480, and SW620 cells; assay: Flow cytometry binding to colorectal cancer cells; format: cell-based, human; settings: 5 μM, 1 hour, 4° C.
Protocol: HT29, SW480, and SW620 cells were grown to confluence and detached with enzyme-free, PBS-based cell dissociation buffer (Gibco, #13151-014) and cell scrapper. The cells were centrifuged at 1500 rpm for 5 min at 4° C., and then blocked with 0.5% BSA in PBS for 30 min on ice and washed with PBS. […] were incubated with 5 μM of either QRH*-Cy5.5 or PEH*-Cy5 for 1 hour at 4° C. with mixing. Cells incubated with PBS alone were used as control. The cells were centrifuged again, washed 3× with cold PBS, and fixed on ice with 4% PFA for 10 min. Flow cytometry was performed with ˜10^4 cells/sample (BD® LSRII, BD Biosciences), and analyzed with the Flowjo software (Tree Star Inc).

[2] = system: dysplastic crypts in polyps; assay: Immunofluorescence on mouse colon polyp specimens; settings: OCT embedded polyp specimens
Protocol: Specimens of flat dysplasia in mouse colon were formalin fixed and processed as described above. Specimens of polypoid dysplasia in mouse colon were frozen in OCT (Sakura Finetek), cut in 10 μm sections, and incubated with 1:1000 dilution of primary goat anti-mouse anti-EGFR antibody and AF488-labeled secondary antibody, as described previously. The sections were washed 3× with PBS, fixed with 4% PFA for 10 min, washed with PBS 1×, and mounted with Prolong Gold reagent containing DAPI (Invitrogen). Confocal microscopy images were collected with DAPI, AF488, and Cy5.5 filters. Adjacent sections were processed for histology (H&E).

[3] = system: human biliary tract epithelium; assay: Immunofluorescence of QRH*-Cy5.5 on human biliary tract epithelium
EGFR [4] = biological target: T1, EGFR (Homo sapiens, UniProt P00533); assay: siRNA knockdown of EGFR in HT29 cells, confocal fluorescence microscopy; format: cell-based; parameters: endogenous in cells; host or cells: HT29 human colorectal adenocarcinoma cells (ATCC)
Protocol: HT29, SW480, and SW620 cells (˜10^3) were grown on cover slips to ˜80% confluence. The cells were washed 1× with PBS and incubated with 5 μM of QRH*-Cy5.5 and PEH*-Cy5.5 for 3 min at RT. The cells were then washed 3× in PBS, fixed with 4% paraformaldehyde (PFA) for 5 min, washed 1× with PBS, and then mounted on glass slides with ProLong Gold reagent containing DAPI (Invitrogen). Confocal fluorescence images were collected with FITC, Cy5.5, and DAPI filters (Leica Inverted SPSX Confocal Microscope System) using a 63× oil-immersion objective. Fluorescence intensities from 5 cells in 2 independent images were quantified using custom Matlab (Mathworks) software.
We used siRNA to knockdown expression of EGFR in HT29 cells. We used ON-TARGETplus human EGFR siRNA and ON-TARGETplus non-targeting pool (Thermo Scientific) per manufacturer's protocol. 5 μL of siRNA at 5 μM/L concentration was transfected into HT29 cells using DharmaFECT (Thermo Scientific). QRH*-Cy5.5 and PEH*-Cy5.5 were incubated with HT29 siEGFR and siCL cells. The cells were fixed with either 4% PFA or methanol. A 1:1000 dilution of primary monoclonal mouse anti-EGFR antibody (Thermo Scientific, # MS-396, clone 199.12, IgG2a isotype) was incubated overnight at 4° C. Afterwards, the cells were washed 3× with PBS, and further incubated with 1:500 dilution of AF488-labeled secondary goat anti-mouse IgG antibody (Life Technologies, # A-11029) for 1 hour at RT, washed 3×, and then mounted on glass slides with ProLong Gold reagent containing DAPI (Invitrogen). Confocal fluorescence images were collected with FITC, Cy5.5, and DAPI filters using a 63× oil-immersion objective.
We validated specific binding of QRH*-Cy5.5 to EGFR on siRNA knockdown in HT29 cells. On confocal microscopy, QRH*-Cy5.5 (red), FIG. 2A, and AF488-labeled anti-EGFR (green), FIG. 2B, bind strongly to the surface (arrows) of control HT29 cells (transfected with siCL, non-targeting siRNA), scale bars 30 μm. […] The results (mean±std) for QRH*-Cy5.5, anti-EGFR AF488, and PEH*-Cy5.5 to control cells (siCL) were 7.8±1.7, 3.1±1.0, and 1.6±0.3 AU, respectively, and to EGFR knockdown cells (siEGFR) were 2.5±0.8, 1.0±0.4, and 1.9±0.7 AU, respectively, *P<0.01 by paired t-test, FIG. 2G. Results are an average of 10 cells from 2 images performed independently. EGFR expression is shown on Western blot, FIG. 12H.

EGFR [5] = biological target: T1, EGFR; assay: Co-localization of EGFR peptide and anti-EGFR antibody binding on colorectal cancer cells; format: cell-based; parameters: endogenous in cells; host or cells: HT29 human colorectal adenocarcinoma cells (ATCC)
Protocol: We evaluated co-localization of binding by the QRH*-Cy5.5 peptide and a validated anti-EGFR antibody on cells that overexpress EGFR. A panel of colorectal cancer cells (HT29, SW480, and SW620) was grown on cover slips to […]. QRH*-Cy5.5 at 5 μM concentration was incubated with each cell line for 1 hour at 4° C. The cells were washed and fixed with 4% PFA for 5 min. The cells were incubated with primary anti-EGFR antibody and secondary AF488-labeled antibody, as described previously. We applied the peptide rather than the antibody to the cells first because the peptide has a lower affinity and in the lower concentration (<10 μM) is less likely to interfere with antibody binding. Confocal fluorescence images were collected with FITC, Cy5.5, and DAPI filters using a 63× oil-immersion objective.

Substance: QRHKPRE (SEQ ID NO: 1) with Cy5.5 fluorophore attached via a GGGSK linker (SEQ ID NO: 18) on the C-terminus [QRH*-Cy5.5]
- binding time scale (onset) (HT29 cells): 2.46 min
- apparent association time constant k (HT29 cells; 5 μM, 4° C., flow cytometry): 0.406 min⁻¹
- binding on flow cytometry compared with control peptide [1]: stronger binding to each cell than PEH*-Cy5.5
- fluorescence for binding to dysplastic crypts [2]: increased fluorescence
- staining on immunofluorescence ([3]; biliary intraepithelial neoplasia (BilIN) and biliary tract cancer): intense staining
- staining on immunofluorescence ([3]; normal biliary tract epithelium): minimal staining
- fluorescence intensity (mean±std) (EGFR [4]; EGFR knockdown HT29 cells (siEGFR)): 2.5±0.8 AU
- fluorescence intensity (mean±std) (EGFR [4]; control HT29 cells (siCL, non-targeting siRNA)): 7.8±1.7 AU
- co-localization with AF488-labeled anti-EGFR antibody (EGFR [5]; HT29 cells, 5 μM): co-localize
- binding on confocal microscopy (EGFR [5]; SW620 cells): Minimal binding
